Results: the supplement of paper PMC10307832

What was measured:
Assay in all cases: relative viability (nuclei count vs DMSO), 5 days (fraction); higher = more cells survive
[1] = compound: CC1=C(C(=O)N2C=CSC2=N1)CCN3CCC(=C(C4=CC=CC=C4)C5=CC=C(C=C5)F)CC3 + Nc1nc2[nH]cc(CCc3ccc(C(=O)N[C@@H](CCC(=O)O)C(=O)O)cc3)c2c(=O)[nH]1 [Pemetrexed] (partner 0.2 µM)
Procedure, shortened: (§1)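 Values are medians from duplicate plates. Each reflects relative viability, defined as the nuclei count of treated wells over that of vehicle wells. Lung cancer cell lines in 1536-well plates were pin-tool dosed one day after seeding with one drug alone or with a fixed anchor-drug dose plus five library-drug doses (not always all listed) in √10 steps, then fixed, stained and imaged at 4× after 5 days.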

[2] = compound: CC1=C(C(=O)N2C=CSC2=N1)CCN3CCC(=C(C4=CC=CC=C4)C5=CC=C(C=C5)F)CC3 + C[C@@H](Oc1cc(-c2cnn(C3CCNCC3)c2)cnc1N)c1c(Cl)ccc(F)c1Cl [Crizotinib] (partner 1 µM)
Procedure, shortened: as §1

[3] = compound: CC1=C(C(=O)N2C=CSC2=N1)CCN3CCC(=C(C4=CC=CC=C4)C5=CC=C(C=C5)F)CC3 + CS(=O)(=O)CCNCc1ccc(-c2ccc3ncnc(Nc4ccc(OCc5cccc(F)c5)c(Cl)c4)c3c2)o1 [Lapatinib] (partner 2 µM)
Procedure, shortened: as §1

[4] = compound: CC1=C(C(=O)N2C=CSC2=N1)CCN3CCC(=C(C4=CC=CC=C4)C5=CC=C(C=C5)F)CC3 + Cc1nc(Nc2ncc(C(=O)Nc3c(C)cccc3Cl)s2)cc(N2CCN(CCO)CC2)n1 [Dasatinib] (partner 0.075 µM)
Procedure, shortened: as §1

| Cell Line | relative viability ([1]; first compound 0.08 µM) | relative viability ([1]; first compound 0.253 µM) | relative viability ([1]; first compound 0.8 µM) | relative viability ([1]; first compound 2.53 µM) | relative viability ([1]; first compound 8 µM) | relative viability ([2]; first compound 0.08 µM) | relative viability ([2]; first compound 0.253 µM) | relative viability ([2]; first compound 0.8 µM) | relative viability ([2]; first compound 2.53 µM) | relative viability ([2]; first compound 8 µM) | relative viability ([3]; first compound 0.08 µM) | relative viability ([3]; first compound 0.253 µM) | relative viability ([3]; first compound 0.8 µM) | relative viability ([3]; first compound 2.53 µM) | relative viability ([3]; first compound 8 µM) | relative viability ([4]; first compound 0.08 µM) | relative viability ([4]; first compound 0.253 µM) | relative viability ([4]; first compound 0.8 µM) | relative viability ([4]; first compound 2.53 µM) | relative viability ([4]; first compound 8 µM) |
| --- | --- | --- | --- | --- | --- | --- | --- | --- | --- | --- | --- | --- | --- | --- | --- | --- | --- | --- | --- | --- |
| NCI-H460 | 0.0657 | 0.059 | 0.0626 | 0.0637 | 0.0907 | 0.597 | 1.16 | 1.09 | 0.794 | 0.188 | 0.629 | 1.32 | 1.06 | 0.93 | 0.496 | 0.508 | 0.444 | 0.486 | 0.574 | 0.395 |
| NCI-H2170 | 0.278 | 0.269 | 0.28 | 0.271 | 0.248 | 1.2 | 1.17 | 1.36 | 1.11 | 0.927 | 0.274 | 0.268 | 0.276 | 0.278 | 0.274 | 0.516 | 0.472 | 0.65 | 0.669 | 0.496 |
| H3255 | 0.554 | 0.532 | 0.552 | 0.565 | 0.552 | 0.776 | 0.967 | 0.798 | 0.916 | 0.752 | 0.221 | 0.32 | 0.249 | 0.309 | 0.246 | 0.349 | 0.357 | 0.307 | 0.339 | 0.375 |
| NCI-H520 | 0.726 | 0.566 | 0.691 | 0.778 | 0.477 | 0.679 | 0.608 | 0.858 | 0.58 | 0.476 | 0.78 | 0.693 | 0.942 | 1.1 | 0.684 | 0.208 | 0.195 | 0.221 | 0.209 | 0.182 |
| NCI-H1437 | 0.338 | 0.371 | 0.323 | 0.35 | 0.235 | – | 0.902 | 0.978 | 1.03 | 0.604 | – | 0.718 | 0.88 | 0.928 | 0.487 | 0.471 | 0.346 | 0.434 | 0.426 | 0.339 |
| NCI-H358 | 0.204 | 0.196 | 0.16 | 0.179 | 0.162 | 0.455 | 0.327 | 0.413 | 0.548 | 0.609 | 0.442 | 0.535 | 0.427 | 0.44 | 0.404 | 0.175 | 0.21 | 0.133 | 0.153 | 0.218 |
| LU99A | 0.167 | 0.193 | 0.164 | 0.168 | 0.152 | 0.602 | 0.636 | 0.558 | 0.625 | 0.444 | 0.894 | 1.04 | 0.998 | 1.06 | 0.835 | 0.507 | 0.544 | 0.57 | 0.551 | 0.422 |
| HCC-78 | 0.798 | 0.867 | 0.935 | 0.923 | 0.66 | 0.283 | 0.335 | 0.34 | 0.319 | 0.326 | 0.851 | 0.784 | 0.731 | 0.779 | 0.51 | 0.344 | 0.356 | 0.373 | 0.344 | 0.248 |
| NCI-H647 | 0.185 | 0.149 | 0.185 | 0.166 | 0.184 | 1.09 | 1.61 | 1.01 | 1.34 | 0.476 | 1.06 | 1.05 | 1.19 | 1.26 | 0.319 | 0.12 | 0.15 | 0.167 | 0.18 | 0.0953 |
| NCI-H1650 | 0.335 | 0.348 | 0.352 | 0.461 | 0.337 | 0.892 | 1.14 | 0.957 | 1.01 | 0.872 | 0.685 | 0.891 | 0.709 | 0.925 | 0.579 | 0.436 | 0.324 | 0.297 | 0.405 | 0.263 |
| COR-L 105 | 1.03 | 1.26 | 1.27 | 1.4 | 0.89 | 0.676 | 0.809 | 0.641 | 0.836 | 0.786 | 0.33 | 0.443 | 0.336 | 0.379 | 0.401 | 0.416 | 0.32 | 0.241 | 0.372 | 0.294 |
| NCI-H2009 | 1.04 | 1.1 | 1.04 | 1.12 | 0.938 | 1.25 | 1.12 | 0.968 | 1.14 | 1.11 | 1.01 | 0.903 | 0.785 | 0.946 | 0.786 | 0.369 | 0.304 | 0.28 | 0.332 | 0.285 |
| NCI-H2405 | 1.11 | – | 1.07 | 1.08 | 0.758 | 0.817 | 0.788 | 0.871 | 0.858 | 0.725 | 1.29 | 1.06 | 1.05 | 1.17 | 0.955 | 0.23 | 0.223 | 0.208 | 0.186 | 0.184 |
| LOU-NH91 | 0.303 | 0.3 | 0.438 | 0.387 | 0.346 | 0.701 | 0.747 | 0.715 | 0.772 | 0.726 | 0.774 | 0.809 | 0.765 | 0.814 | 0.803 | 0.527 | 0.586 | 0.557 | 0.594 | 0.435 |
| HCC-15 | 0.216 | 0.207 | 0.225 | 0.231 | 0.227 | 0.804 | 0.88 | 0.933 | 0.795 | 0.576 | 0.961 | 0.667 | 0.885 | 1.02 | 0.73 | 0.638 | 0.561 | 0.643 | 0.678 | 0.586 |
| SW 1573 | 0.998 | 0.854 | 0.786 | 0.933 | 0.578 | 0.74 | 0.919 | 0.819 | 0.714 | 0.726 | 1.26 | 1.2 | 1.05 | 1.27 | 1.06 | – | 0.586 | 0.537 | 0.512 | 0.225 |
